“Also recorded” adds a separate entry of the source. Where no end group is shown, it is not given here.

In test [1] the target is T1, FPRL2 (Homo sapiens, UniProt P25089).
T1 sequence (P25089 1-353): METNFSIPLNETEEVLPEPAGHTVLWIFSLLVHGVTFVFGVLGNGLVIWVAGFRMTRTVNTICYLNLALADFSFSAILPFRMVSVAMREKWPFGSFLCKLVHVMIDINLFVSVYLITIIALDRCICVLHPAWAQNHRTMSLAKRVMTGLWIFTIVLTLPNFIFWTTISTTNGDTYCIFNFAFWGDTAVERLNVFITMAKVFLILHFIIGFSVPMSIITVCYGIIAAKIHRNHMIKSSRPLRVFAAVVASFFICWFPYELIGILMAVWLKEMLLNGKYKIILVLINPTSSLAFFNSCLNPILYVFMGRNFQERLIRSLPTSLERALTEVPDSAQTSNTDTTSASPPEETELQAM
The experiment in a line: IP3 assay, HEK293 cells transiently transfected with FPRL2 and Gα16. Format: cell-based. More on the design: expressed in transfected cells; host or cells: HEK293 cells, transient, lipofectamine. Particulars: FIG. 8. As to the method:
On day 1, cells comprising the receptors (endogenous and/or non-endogenous) can be plated onto 24 well plates, usually 1×10^5 cells/well (although his umber can be optimized. On day 2 cells can be transfected by firstly mixing 0.25 μg DNA in 50 μl serum free DMEM/well and 2 μl lipofectamine in 50 μl serum free DMEM/well. The solutions are gently mixed and incubated for 15-30 min at room temperature. Cells are washed with 0.5 ml PBS and 400 μl of serum free media is mixed with the transfection media and added to the cells. The cells are then incubated for 3-4 […] at 37° C./5% CO2 and then the transfection media is removed and replaced with 1 ml/well of regular growth media. On day 3 the cells are labeled with ^3H-myo-inositol. Briefly, the media is removed and the cells are washed with 0.5 ml PBS. Then 0.5 ml inositol-free/serum free media (GIBCO BRL) is added/well with 0.25 μCi of ^3H-myo-inositol/well and the cells are incubated for 16-18 hrs o/n at 37° C./5% CO2. On Day 4 the cells are washed with 0.5 ml PBS and 0.45 ml of assay medium is added containing inositol-free/serum free media 10 μM pargyline 10 mM lithium chloride or 0.4 ml of assay medium and 50 μl of 10× ketanserin (ket) to final concentration of 10 μM. The cells are then incubated for 30 min at 37° C. The cells are then washed with 0.5 ml PBS and 200 μl of fresh/ice cold stop solution (1M KOH; 18 mM Na-borate; 3.8 mM EDTA) is added/well. The solution is kept on ice for 5-10 min or until cells were lysed and then neutralized by 200 μl of fresh/ice cold neutralization sol. (7.5% HCL). The lysate is then transferred into 1.5 ml eppendorf tubes and 1 ml of chloroform/methanol (1:2) is added/tube. The solution is vortexed for 15 sec and the upper phase is applied to a Biorad AG1-X8™ anion exchange resin (100-200 mesh). […]
Briefly, HEK293 cells were transiently transfected with 6 μg FPRL2 plasmid DNA and 6 μg Gα16 plasmid DNA per 10^7 cells per 15 cm culture dish using lipofectamine (Invitrogen). […] The level of intracellular IP3 was determined as described in Example 4, supra.

Test [2] concerns the target T1, FPRL2. The test is described as follows: Whole cell adenylate cyclase (cAMP) assay, stably transfected HEK293 cells. Format: cell-based. More on the design: expressed in transfected cells. Particulars: in the presence of 5 μM forskolin, FIG. 6. The source says:
A Flash Plate™ Adenylyl Cyclase kit (New England Nuclear; Cat. No. SMP004A) designed for cell-based assays can be modified for use with crude plasma membranes. The Flash Plate wells can contain a scintillant coating which also contains a specific antibody recognizing cAMP. The cAMP generated in the wells can be quantitated by a direct competition for binding of radioactive cAMP tracer to the cAMP antibody. The following serves as a brief protocol for the measurement of changes in cAMP levels in whole cells that express the receptors.
Transfected cells are harvested approximately twenty four hours after transient transfection. Media is carefully aspirated off and discarded. 10 ml of PBS is gently added to each dish of cells followed by careful aspiration. 1 ml of Sigma cell dissociation buffer and 3 ml of PBS are added to each plate. Cells are pipetted off the plate and the cell suspension is collected into a 50 ml conical centrifuge tube. Cells are then centrifuged at room temperature at 1,100 rpm for 5 min. The cell pellet is carefully re-suspended into an appropriate volume of PBS (about 3 ml/plate). The cells are then counted using a hemocytometer and additional PBS is added to give the appropriate number of cells (with a final volume of about 50 μl/well).
cAMP standards and Detection Buffer (comprising 1 μCi of tracer [^125I cAMP (50 μl] to 11 ml Detection Buffer) is prepared and maintained in accordance with the manufacturer's instructions. Assay Buffer is prepared fresh for screening and contains 50 μl of Stimulation Buffer, 3 ul of test compound (12 μM final assay concentration) and 50 μl cells, Assay Buffer is stored on ice until utilized. The assay is initiated by addition of 50 μl of cAMP standards to appropriate wells followed by addition of 50 ul of PBSA to wells H-11 and H12. 50 μl of Stimulation Buffer is added to all wells. DMSO (or selected candidate compounds) is added to appropriate wells using a pin tool capable of dispensing 3 μl of compound solution, with a final assay concentration of 12 μM test compound and 100 μl total assay volume. The cells are then added to the wells and incubated for 60 min at room temperature. 100 μl of Detection Mix containing tracer cAMP is then added to the wells. Plates are then incubated additional 2 hours followed by counting in a Wallac MicroBeta scintillation counter. Values of cAMP/well are then extrapolated from a standard cAMP curve which is contained within each assay plate.
In FIG. 6, agonist activity was determined through adenylate cyclase activity. […] Samples were then assessed for the level of intracellular cAMP as described in Example 4, supra.

As to `CC[C@H](C)[C@H](NC(=O)[C@H](CCC(=O)O)NC(=O)[C@H](CO)NC(=O)[C@@H](NC(=O)[C@H](CC(C)C)NC(=O)[C@H](CC(C)C)NC(=O)[C@H](CC(C)C)NC(=O)[C@H](CC(C)C)NC(=O)[C@H](CS)NC(=O)[C@H](CO)NC(=O)[C@H](Cc1ccccc1)NC(=O)CNC(=O)[C@H](CCCNC(=N)N)NC(=O)[C@@H]1CCCN1C(=O)[C@H](C)NC(=O)[C@@H](N)CCSC)[C@@H](C)O)C(=O)N[C@@H](CC(=O)O)C(=O)N[C@@H](CC(C)C)C(=O)N1CCC[C@H]1C(=O)N[C@H](C(=O)N[C@@H](CCCCN)C(=O)N[C@@H](CCCNC(=N)N)C(=O)N[C@@H](CCCNC(=N)N)C(=O)N[C@@H](C)C(=O)O)C(C)C` [Humanin], in test [1], the “Level of intracellular IP3 (FPRL2 coupling to Gα16)” value (“Level of intracellular IP3” for short) was “dose-dependent elevation of the level of intracellular IP3”. Besides, the “Agonist activity at FPRL2, intracellular cAMP” value (“Agonist activity at FPRL2” for short) is “agonists of both FPRL1 and FPRL2” in test [2]; “agonists of both FPRL2 and FPRL1” in test [2] (listed as Human).

`CC(C)c1ccc2c(c1)CCC1C(C)(C(N)=O)CCCC21C` (stereo not shown) [Compound 1, 7-Isopropyl-1,4a-dimethyl-1,2,3,4,4a,9,10,10a-octahydro-phenanthrene-1-carboxylic acid amide]: the “Level of intracellular IP3” value in test [1] was “dose-dependent elevation of the level of intracellular IP3”. Also, in test [2], the “Agonist activity at FPRL2” value is “selectively an agonist of FPRL2”.

As for “MAPRGFSCLLLLTGEIDLPVKRRA [[Gly14]-Humanin]”, in test [1], the “Level of intracellular IP3” value is “dose-dependent elevation of the level of intracellular IP3”. For the same compound, the “Agonist activity at FPRL2” value in test [2] is “agonists of both FPRL1 and FPRL2; also recorded: agonists of both FPRL2 and FPRL1”.
